From US20240246905A1 (University of Leicester, priority 2021, published 2024)
≈ marks a conversion by molar mass, not a printed value.

Columns and labels:
MRSA 252 [1] = assay: Disc diffusion (Kirby-Bauer), zone of inhibition; assay type: cell-based, Staphylococcus aureus; conditions: Staphylococcus aureus, 500 μg/mL, '/' = no zone, read-out: Zone of inhibition
Method: (§1) E. coli DH5α, P. aeruginosa PA01 and the 53 S. aureus strains were recovered from frozen (−80° C.) glycerol (15% v/v) stocks on Lysogeny agar (LA)—Gram negative and trypticase soy agar (TSA)—plates at 37° C. for 24 hours. Single colonies were placed in either 3 mL Lysogeny broth (LB)—Gram negative or trypticase soy broth (TSB)—Gram positive and incubated at 37° C., 250 rpm for 18 hours.
(§2) The antibiotic activity was determined using a Kirby-Bauer method according to Clinical Standard Laboratory Institute (CSLI) Guidelines (2017). Briefly, 180 μL of a 1 in 200 dilution (in LB or TSB) of overnight cultures of selected Gram negative and Gram positive bacteria were applied to an agar plate containing the solid growth medium, Mueller-Hinton agar (MHA). Sterile discs, inoculated with 50 μL of antibiotic, were first added to the agar plate before the plates were incubated for 24 hours at 37° C. Following incubation, the zone of inhibition (if it existed) was recorded.

MSSA 476 [2] = assay: Disc diffusion (Kirby-Bauer), zone of inhibition; assay type: cell-based, Staphylococcus aureus; conditions: Staphylococcus aureus, 500 μg/mL, '/' = no zone, read-out: Zone of inhibition
Method: as §1, §2

HEK293 cells = assay: Cytotoxicity assay, resazurin (CO-ADD); conditions: set concentration of 32 μg/mL
Method: The cytotoxicity studies were performed by CO-ADD (The Community for Open Antimicrobial Drug Discovery), funded by the Wellcome trust (UK) and the University of Queensland, Australia.^(28) In this study, the compounds were screened against a human embryonic kidney cell line, HEK293, at a set concentration of 32 μg/mL.
DMEM supplemented with 10% FBS was used as growth media and the cells were incubated together with the compounds for 20 hours at 37° C. in 5% CO2.
Cytotoxicity (or cell viability) was measured by fluorescence, excitation: 560/10 nm, emission: 590/10 nm (F560/590), after addition of 5 μL of 25 μg/mL Resazurin (2.3 μg/mL final concentration) and after incubation for further 3 h at 37° C. in 5% CO2. The fluorescence intensity was measured using a Tecan M1000 Pro monochromator plate reader, using automatic gain calculation CC50 (concentration at 50% cytotoxicity) were calculated by curve fitting the inhibition values vs. log(concentration) using sigmoidal dose-response function, with variable fitting values for bottom, top and slope. The curve fitting was implemented using Pipeline Pilot's dose-response component.

[3] = tested on: various Staphylococcus aureus strains; assay: Disc diffusion, Staphylococcus aureus strain study; assay type: cell-based; conditions: Staphylococcus aureus, 500 μg/mL
Text: At this point in the study it was decided to perform a disc diffusion assay study on 50 S. aureus strains. […] Moreover, by employing a range of mutant strains of S. aureus with specific gene-deletions, it was believed that if particular strains were resistant to the lead compounds, it could provide insights on the likely protein target of the lead antibiotics. However, all six of the compounds utilized in this study were able to inhibit growth of all 50 strains of S. aureus assayed at the chosen concentration of 500 μg/mL concentration (Table 5).
as §1, §2

MRSA 252 [4] = assay: MIC, broth micro-dilution; assay type: cell-based, Staphylococcus aureus; conditions: Staphylococcus aureus, read-out: MIC
Method: as §1
(§3) Antibiotic MIC's were determined by a broth micro-dilution method according to Clinical Standard Laboratory Institute (CSLI) Guidelines (2017). Briefly, 96-well microplates, each containing 195 μL of the 1:2 dilution antibiotic in TSB, were inoculated with 5 μL of overnight cultured bacteria, diluted to give a starting bacterial concentration of 5×10^5 CFU/mL. The optical density of each well inoculated was recorded every 12 minutes over an 18 hour period at 37° C. The data from this was plotted in OriginPro8 (OriginLab) and sigmoidal curves fitted using the dose response function. Fitted values for each curve were used to calculate the MIC.

MSSA 476 [5] = assay: MIC, broth micro-dilution; assay type: cell-based, Staphylococcus aureus; conditions: Staphylococcus aureus, MSSA, read-out: MIC
Method: as §1, §3

Escherichia coli DH5α = assay: Disc diffusion (Kirby-Bauer), zone of inhibition; assay type: cell-based; conditions: Escherichia coli DH5α; 500 μg/mL; '/' = no zone; read-out: Zone of inhibition
Method: as §1, §2

[6] = tested on: Staphylococcus aureus 15981; assay: Disc diffusion (Kirby-Bauer), zone of inhibition; assay type: cell-based; conditions: Staphylococcus aureus 15981; 500 μg/mL; '/' = no zone; read-out: Zone of inhibition
Method: as §1, §2

[C-]#[N+]C=Cc1ccc(O)cc1 [Compound 2, 4-(2-Isocyanovinyl)phenol]
zone of inhibition at 500 µg/mL (MRSA 252 [1]): 22 mm
zone of inhibition at 500 µg/mL (MSSA 476 [2]): 20 mm
toxicity towards the HEK293 cell line (in words) (HEK293 cells): no toxicity
zone of inhibition at 500 µg/mL ([3]; MRSA, strain MRSA 252): 16 mm
zone of inhibition at 500 µg/mL ([3]; strain ASARM 61): 15 mm
zone of inhibition at 500 µg/mL ([3]; strain ASARM 70): 14 mm
zone of inhibition at 500 µg/mL ([3]; strain ASARM 71): 14 mm
zone of inhibition at 500 µg/mL ([3]; strain ASARM 72): 12 mm
zone of inhibition at 500 µg/mL ([3]; strain ASARM 73): 16 mm
zone of inhibition at 500 µg/mL ([3]; strain ASARM 75): 15 mm
zone of inhibition at 500 µg/mL ([3]; strain ASARM 76): 14 mm
zone of inhibition at 500 µg/mL ([3]; strain ASARM 77): 14 mm
zone of inhibition at 500 µg/mL ([3]; strain ASARM 79): 13 mm
zone of inhibition at 500 µg/mL ([3]; strain ASARM 80): 13 mm
zone of inhibition at 500 µg/mL ([3]; strain EOE 3): 12 mm
zone of inhibition at 500 µg/mL ([3]; strain EOE 23): 16 mm
zone of inhibition at 500 µg/mL ([3]; strain EOE 30): 18 mm
zone of inhibition at 500 µg/mL ([3]; strain EOE 35): 14 mm
zone of inhibition at 500 µg/mL ([3]; strain EOE 41): 17 mm
zone of inhibition at 500 µg/mL ([3]; strain EOE 42): 16 mm
zone of inhibition at 500 µg/mL ([3]; strain EOE 45): 15 mm
zone of inhibition at 500 µg/mL ([3]; strain EOE 52): 14 mm
zone of inhibition at 500 µg/mL ([3]; strain EOE 54): 16 mm
zone of inhibition at 500 µg/mL ([3]; strain EOE 57): 18 mm
zone of inhibition at 500 µg/mL ([3]; strain S139_7_7): 14 mm
zone of inhibition at 500 µg/mL ([3]; strain S197_1_1): 25 mm
zone of inhibition at 500 µg/mL ([3]; strain S197_1_8): 16 mm
zone of inhibition at 500 µg/mL ([3]; strain S197_1_9): 16 mm
zone of inhibition at 500 µg/mL ([3]; strain S197_1_10): 15 mm
zone of inhibition at 500 µg/mL ([3]; strain S295_1_1): 20 mm
zone of inhibition at 500 µg/mL ([3]; strain S295_1_2): 14 mm
zone of inhibition at 500 µg/mL ([3]; strain S295_1_3): 18 mm
zone of inhibition at 500 µg/mL ([3]; strain S364_5_11): 26 mm
zone of inhibition at 500 µg/mL ([3]; strain S364_5_12): 22 mm
zone of inhibition at 500 µg/mL ([3]; strain Sa_TPS 3026): 14 mm
zone of inhibition at 500 µg/mL ([3]; strain Sa_TPS 3072): 16 mm
zone of inhibition at 500 µg/mL ([3]; strain Sa_TPS 3092): 20 mm
zone of inhibition at 500 µg/mL ([3]; strain Sa_TPS 3097): 15 mm
zone of inhibition at 500 µg/mL ([3]; strain Sa_TPS 3103): 16 mm
zone of inhibition at 500 µg/mL ([3]; strain Sa_TPS 3104): 15 mm
zone of inhibition at 500 µg/mL ([3]; strain Sa_TPS 3106): 15 mm
zone of inhibition at 500 µg/mL ([3]; strain Sa_TPS 3118): 18 mm
zone of inhibition at 500 µg/mL ([3]; strain Sa_TPS 3133): 14 mm
zone of inhibition at 500 µg/mL ([3]; strain Sa_TPS 3134): 14 mm
zone of inhibition at 500 µg/mL ([3]; strain USFL 008): 14 mm
zone of inhibition at 500 µg/mL ([3]; strain USFL 009): 14 mm
zone of inhibition at 500 µg/mL ([3]; strain USFL 012): 16 mm
zone of inhibition at 500 µg/mL ([3]; strain USFL 016): 14 mm
zone of inhibition at 500 µg/mL ([3]; strain USFL 018): 15 mm
zone of inhibition at 500 µg/mL ([3]; strain USFL 020): 14 mm
zone of inhibition at 500 µg/mL ([3]; strain USFL 021): 16 mm
zone of inhibition at 500 µg/mL ([3]; strain USFL 028): 15 mm
zone of inhibition at 500 µg/mL ([3]; strain USFL 035): 15 mm
zone of inhibition at 500 µg/mL ([3]; strain USFL 054): 14 mm
MIC (MRSA 252 [4]): 90 µg/mL (≈ 620 µM)
MIC (MSSA 476 [5]): 100 µg/mL (≈ 689 µM)
zone of inhibition at 500 µg/mL (Escherichia coli DH5α): 20 mm
zone of inhibition at 500 µg/mL [6]: 22 mm
